Earlier results as cited in patent US20250064843A1, “METHOD AND MEDICAMENT FOR TREATING AMYOTROPHIC LATERAL SCLEROSIS” (4B TECHNOLOGIES (BEIJING) CO., LIMITED, priority 2021, published 2025).
In brackets after ≈: the same amount, converted by molar mass. Blank lines part the entries; values can stand above or below the compound they belong to.

Experiments:
IGF1R = IGF1R (Homo sapiens, UniProt P08069); conditions: for IGF1R
proliferation = conditions: for proliferation
mouse leukemia cells = conditions: on mouse leukemia cells
ALS-mimic mouse model = conditions: NR3C1 antagonist
KCNC1 = biological target: T1, KCNC1 (Homo sapiens, UniProt P48547); conditions: for KCNC1
T1 sequence (P48547 1-511): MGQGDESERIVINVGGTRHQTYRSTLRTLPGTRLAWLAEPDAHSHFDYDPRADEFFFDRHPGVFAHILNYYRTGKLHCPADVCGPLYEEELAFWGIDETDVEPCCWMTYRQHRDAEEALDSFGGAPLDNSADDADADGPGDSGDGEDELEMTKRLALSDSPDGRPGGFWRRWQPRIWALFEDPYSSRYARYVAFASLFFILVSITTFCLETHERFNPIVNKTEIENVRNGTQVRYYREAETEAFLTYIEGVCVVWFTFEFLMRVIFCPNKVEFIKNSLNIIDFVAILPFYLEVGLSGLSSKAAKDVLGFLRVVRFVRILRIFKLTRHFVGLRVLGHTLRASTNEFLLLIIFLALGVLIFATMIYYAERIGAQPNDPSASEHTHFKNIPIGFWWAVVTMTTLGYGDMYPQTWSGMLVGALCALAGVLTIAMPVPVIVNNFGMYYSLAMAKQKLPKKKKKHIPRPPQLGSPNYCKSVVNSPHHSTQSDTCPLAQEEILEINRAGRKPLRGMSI

leukemia cells = conditions: on leukemia cells at 24 h
human neutrophils = conditions: in human neutrophils
NR3C1 = biological target: T2, NR3C1 (Homo sapiens, UniProt P04150); conditions: for NR3C1; retrieved from Selleckchem.com
T2 sequence (P04150 1-777): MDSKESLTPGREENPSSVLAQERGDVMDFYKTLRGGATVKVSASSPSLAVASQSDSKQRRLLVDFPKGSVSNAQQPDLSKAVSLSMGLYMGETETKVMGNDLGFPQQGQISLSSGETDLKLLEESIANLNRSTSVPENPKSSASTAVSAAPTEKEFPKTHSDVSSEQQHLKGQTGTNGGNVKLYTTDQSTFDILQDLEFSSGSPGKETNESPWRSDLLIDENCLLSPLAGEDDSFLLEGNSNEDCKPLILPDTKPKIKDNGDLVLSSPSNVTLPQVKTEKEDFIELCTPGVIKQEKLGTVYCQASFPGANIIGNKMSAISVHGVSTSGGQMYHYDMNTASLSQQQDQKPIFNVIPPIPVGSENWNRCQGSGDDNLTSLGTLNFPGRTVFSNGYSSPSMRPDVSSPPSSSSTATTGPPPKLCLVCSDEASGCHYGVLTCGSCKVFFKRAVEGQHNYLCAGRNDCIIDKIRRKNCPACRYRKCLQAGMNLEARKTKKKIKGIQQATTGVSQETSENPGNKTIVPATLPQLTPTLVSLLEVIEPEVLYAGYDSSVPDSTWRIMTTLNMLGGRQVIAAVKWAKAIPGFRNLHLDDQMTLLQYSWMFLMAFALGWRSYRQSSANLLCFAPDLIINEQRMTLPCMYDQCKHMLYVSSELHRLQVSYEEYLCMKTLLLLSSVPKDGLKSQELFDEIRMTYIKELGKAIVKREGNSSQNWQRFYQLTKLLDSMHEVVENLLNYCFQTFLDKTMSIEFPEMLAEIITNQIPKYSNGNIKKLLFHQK

ALS patients = conditions: NR3C1 agonists

IGF1R, sequence (P08069 31-1367): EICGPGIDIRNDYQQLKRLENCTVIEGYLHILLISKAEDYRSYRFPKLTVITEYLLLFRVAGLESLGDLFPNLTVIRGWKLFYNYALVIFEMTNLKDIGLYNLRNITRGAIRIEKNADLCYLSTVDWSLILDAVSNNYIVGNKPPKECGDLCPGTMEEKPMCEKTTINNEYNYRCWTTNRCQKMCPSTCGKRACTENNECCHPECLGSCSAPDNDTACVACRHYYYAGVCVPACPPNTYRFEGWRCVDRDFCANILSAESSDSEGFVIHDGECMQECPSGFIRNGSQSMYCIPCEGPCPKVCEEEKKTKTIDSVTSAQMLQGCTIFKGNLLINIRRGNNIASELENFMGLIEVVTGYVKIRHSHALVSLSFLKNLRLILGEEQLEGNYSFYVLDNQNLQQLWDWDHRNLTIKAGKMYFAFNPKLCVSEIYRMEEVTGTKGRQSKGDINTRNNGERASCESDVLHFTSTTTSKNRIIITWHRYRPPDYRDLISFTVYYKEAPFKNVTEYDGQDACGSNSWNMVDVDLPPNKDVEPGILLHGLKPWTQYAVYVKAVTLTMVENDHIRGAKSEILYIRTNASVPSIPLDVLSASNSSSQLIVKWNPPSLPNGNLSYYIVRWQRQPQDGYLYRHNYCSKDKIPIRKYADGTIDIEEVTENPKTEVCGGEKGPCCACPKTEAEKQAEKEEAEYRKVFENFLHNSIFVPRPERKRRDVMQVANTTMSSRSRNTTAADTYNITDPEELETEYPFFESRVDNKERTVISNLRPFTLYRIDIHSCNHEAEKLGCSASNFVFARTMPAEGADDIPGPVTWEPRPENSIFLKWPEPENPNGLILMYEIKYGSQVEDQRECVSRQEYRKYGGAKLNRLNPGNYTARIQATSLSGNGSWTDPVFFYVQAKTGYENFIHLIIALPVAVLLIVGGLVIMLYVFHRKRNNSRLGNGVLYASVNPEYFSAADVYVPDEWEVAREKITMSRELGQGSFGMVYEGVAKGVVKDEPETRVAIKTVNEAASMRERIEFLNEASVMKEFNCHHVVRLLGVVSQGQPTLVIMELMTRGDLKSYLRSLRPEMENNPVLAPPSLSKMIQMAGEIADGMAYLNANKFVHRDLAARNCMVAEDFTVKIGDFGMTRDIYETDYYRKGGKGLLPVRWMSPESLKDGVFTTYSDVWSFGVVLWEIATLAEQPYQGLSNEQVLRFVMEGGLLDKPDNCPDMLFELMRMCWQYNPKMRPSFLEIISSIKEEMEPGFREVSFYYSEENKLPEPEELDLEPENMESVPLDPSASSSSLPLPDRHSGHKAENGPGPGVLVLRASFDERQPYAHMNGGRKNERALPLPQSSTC

Compound: COc1cc([C@@H]2c3cc4c(cc3[C@H](O)[C@H]3COC(=O)[C@@H]23)OCO4)cc(OC)c1OC [AXL-1717, picropodophyllin]
IC50 (IGF1R): 1 nM

Compound: COc1cc(C)c(/C=C/C(C)=C/C=C/C(C)=C/C(=O)O)c(C)c1C [Acitretin, (2E,4E,6E,8E)-9-(4-methoxy-2,3,6-trimethylphenyl)-3,7-dimethylnona-2,4,6,8-tetraenoic acid]
IC50 (proliferation): 6600 nM

IC50 (mouse leukemia cells): 0.019 µg/mL (≈ 0.0778 µM)
Compound: Nc1ncn([C@@H]2O[C@H](CO)[C@@H](O)[C@H]2O)c(=O)n1 [Azacitidine, 5-azacytidine]

Compound: O=C(c1ccccn1)[C@]12Cc3cnn(-c4ccc(F)cc4)c3C=C1CCN(S(=O)(=O)c1ccc(C(F)(F)F)cc1)C2 [CORT113176]
effect on pro-inflammatory factors (ALS-mimic mouse model): reducing the expression and origin of pro-inflammatory factors

Compound: Nc1ccncc1 [Dalfampridine, 4-aminopyridine]
IC50 (KCNC1): 29000 nM

Compound: Nc1ncn([C@H]2C[C@H](O)[C@@H](CO)O2)c(=O)n1 [Decitabine, 5-aza-2′-deoxycytidine]
IC50 (leukemia cells): 100 nM

IC50 (human neutrophils): 13.2 mg/L in
Compound: CC(CCc1ccccc1)NCC(O)c1ccc(O)c(C(N)=O)c1 (stereo not drawn) [Labetalol]

IC50 (NR3C1): 17.9 nM
Compound: CC#C[C@]1(O)CCC2C3CCC4=CC(=O)CCC4=C3[C@@H](c3ccc4c(c3)OCO4)C[C@@]21C (stereo partly drawn) [ORG-34517]

Compound: C[C@]12C=CC(=O)C=C1CC[C@@H]1[C@@H]2C(=O)C[C@@]2(C)[C@H]1CC[C@]2(O)C(=O)CO [prednisone]
response to immunosuppression therapy (ALS patients): none of the patients reached the pre-defined responder criteria
